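Assay format: 96-well plates, 48-hour exposure. Here, GI50 denotes the concentration required for 50% inhibition of growth.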 Active and inactive are the calls of the source. Cut-off read from the data, not from the text of the source: active = GI50 up to about 1.1 µM and inactive = higher. A value given as a limit tells only on which side of the number the result lay.

We go through eleven molecules from ChEMBL document CHEMBL1201862, “PubChem BioAssay data set” (2004).

Test systems include BT-549; CAKI-1; HCC 2998; HL-60; LOX IMVI; M14; MCF7; MDA-MB-435; SF-268; SK-MEL-28; SK-MEL-2; SK-MEL-5; SNB-19; SNB-75; SW-620; TK-10; U-251; PC-3; RPMI-8226; SR.
Common to all, as to experiment: NCI anticancer screen, dose series, 48 h

As for `CCOc1ccc(/C=C2/C(=O)N/C(=N\C(C)=O)N2C)cc1`, the GI50 was > 100 µM (inactive) in the assay with BT-549; > 100 µM (inactive) in the assay with CAKI-1; > 100 µM (inactive) in the assay on HCC 2998; 17.9 µM (inactive) in the assay on HL-60; > 100 µM (inactive) in the assay on LOX IMVI; > 100 µM (inactive) with M14. In addition, the GI50 with MCF7 was 62.8 µM (inactive); with MDA-MB-435, > 100 µM (inactive); in the assay on SF-268, > 100 µM (inactive); in the assay with SK-MEL-28, > 100 µM (inactive); in the assay on SK-MEL-2, > 100 µM (inactive); with SK-MEL-5 it was > 100 µM (inactive). The GI50 with SNB-19, with SNB-75, in the assay on SW-620, in the assay on TK-10 and in the assay on U-251 was > 100 µM (inactive) in each case.

Consider `COc1ccc([C@H]2[C@H]3COC(=O)[C@H]3C(C#N)=C3Sc4ccccc4N32)cc1`, for which the GI50 in the assay on BT-549 is 5.37 µM (inactive); with CAKI-1 it was 21.7 µM (inactive); in the assay on HCC 2998, 44.3 µM (inactive); with LOX IMVI, 20.2 µM (inactive); with M14, 56.5 µM (inactive); in the assay on MCF7, 27.3 µM (inactive). In addition, the GI50 was 44.2 µM (inactive) in the assay with MDA-MB-435; 17.3 µM (inactive) in the assay with PC-3; 20.7 µM (inactive) with RPMI-8226; 71.6 µM (inactive) with SF-268; 53.5 µM (inactive) in the assay with SK-MEL-28; 19.1 µM (inactive) in the assay on SK-MEL-2. Further, the GI50 in the assay with SK-MEL-5 is 21.1 µM (inactive); with SNB-19 it was 48.3 µM (inactive); in the assay on SNB-75 it was 9.64 µM (inactive); in the assay on SW-620, 48.6 µM (inactive); with TK-10, 40.6 µM (inactive); in the assay on U-251 it was 24.6 µM (inactive).

As for `C#CCNC(Cc1ccccc1)C(=O)O` (stereo not given), the GI50 with BT-549, with CAKI-1, with HCC 2998, with HL-60, in the assay with LOX IMVI and in the assay on M14 was > 100 µM (inactive) in each case. Besides, the GI50 with MDA-MB-435, in the assay on PC-3, in the assay on RPMI-8226, in the assay with SF-268, with SK-MEL-28 and with SK-MEL-2 was > 100 µM (inactive) in each case. Further, the GI50 in the assay on SK-MEL-5, in the assay with SNB-19, in the assay with SNB-75, in the assay with SR, with SW-620 and in the assay with TK-10 was > 100 µM (inactive) throughout. Also, the GI50 in the assay on U-251 is > 100 µM (inactive).

With `Cc1ccc(S(=O)(=O)NCCCCC(N)C(=O)O)cc1` (stereo not given), the GI50 with BT-549, with CAKI-1, in the assay on M14, in the assay with MCF7, with MDA-MB-435 and in the assay with PC-3 was > 100 µM (inactive) throughout. Moreover, the GI50 in the assay on RPMI-8226, in the assay with SF-268, in the assay on SK-MEL-28, with SK-MEL-5, in the assay on SNB-19 and in the assay with SNB-75 was > 100 µM (inactive) throughout. Moreover, the GI50 in the assay with SW-620 and with U-251 was > 100 µM (inactive) each time.

For the molecule `COC(=O)C1CC2(CCC1=O)Cc1ccccc1C2=O` (stereo not given), the GI50 with BT-549, with CAKI-1, in the assay with HCC 2998, in the assay on HL-60, with LOX IMVI and with M14 was > 100 µM (inactive) throughout. For the same molecule, the GI50 with MCF7 is > 100 µM (inactive); with PC-3, > 100 µM (inactive); in the assay with RPMI-8226 it was 65.5 µM (inactive); with SF-268, > 100 µM (inactive); in the assay on SK-MEL-28, > 100 µM (inactive); in the assay on SK-MEL-2 it was > 100 µM (inactive). Also, the GI50 was > 100 µM (inactive) with SK-MEL-5; > 100 µM (inactive) in the assay on SNB-19; > 100 µM (inactive) with SNB-75; 37.8 µM (inactive) with SR; > 100 µM (inactive) with SW-620; > 100 µM (inactive) in the assay with TK-10. For the same molecule, the GI50 with U-251 is > 100 µM (inactive).

Regarding `CCNC1(c2cccc(C)c2)OC(C)(C)c2cccc3cccc1c23` (stereo not given), the GI50 with BT-549 is 18.9 µM (inactive); with CAKI-1 it was 19.8 µM (inactive); in the assay with HL-60 it was 0.646 µM (active); with LOX IMVI it was 17.3 µM (inactive); with M14, 17.8 µM (inactive); in the assay on MCF7, 17.7 µM (inactive). Besides, the GI50 in the assay on MDA-MB-435 is 16.9 µM (inactive); in the assay on RPMI-8226 it was 0.0321 µM (active); in the assay with SF-268, 16 µM (inactive); in the assay on SK-MEL-2, 15.7 µM (inactive); in the assay with SK-MEL-5, 19.1 µM (inactive); in the assay on SNB-19, 18.2 µM (inactive). In addition, the GI50 in the assay with SNB-75 is 15 µM (inactive); in the assay with SR it was 5.16 µM (inactive); in the assay with SW-620, 17.8 µM (inactive); in the assay with TK-10 it was 17.3 µM (inactive); in the assay on U-251 it was 16.9 µM (inactive).

As to `C(=N/Nc1ccc(-c2nc3ccccc3[nH]2)cc1)/c1c(-c2ccccc2)[nH]c2ccccc12`, the GI50 with CAKI-1 is 0.53 µM (active); in the assay with HCC 2998, 0.168 µM (active); in the assay with HL-60, 0.211 µM (active); with LOX IMVI it was 0.759 µM (active); in the assay with M14, 0.215 µM (active); in the assay on MCF7, 0.361 µM (active). For the same molecule, the GI50 with MDA-MB-435 is 0.0471 µM (active); in the assay with PC-3, 0.311 µM (active); with RPMI-8226, 0.268 µM (active); in the assay on SF-268 it was 0.647 µM (active); in the assay with SK-MEL-28, 0.638 µM (active); in the assay on SK-MEL-2, 0.199 µM (active). Also, the GI50 in the assay on SK-MEL-5 is 0.311 µM (active); in the assay with SNB-75 it was 0.703 µM (active); with SR it was 0.12 µM (active); with SW-620, 0.317 µM (active); in the assay on TK-10, 0.766 µM (active); in the assay on U-251, 0.322 µM (active).

Consider `Cn1c(=O)n2n(c1=O)C(S(=O)(=O)c1ccccc1)C2` (stereo not given), for which the GI50 with BT-549, in the assay with CAKI-1, with HCC 2998, with LOX IMVI, in the assay on M14 and in the assay on MCF7 was > 100 µM (inactive) in each case. Further, the GI50 in the assay on MDA-MB-435, in the assay on PC-3, in the assay with RPMI-8226, in the assay on SF-268, with SK-MEL-28 and in the assay with SK-MEL-2 was > 100 µM (inactive) throughout. Also, the GI50 in the assay with SK-MEL-5, in the assay on SNB-19, with SNB-75, with SW-620, with TK-10 and in the assay with U-251 was > 100 µM (inactive) in each case.

For `O=C(O)c1ccccc1/C=C1\Cc2cc3c(cc2C1=O)CCC3`, the GI50 in the assay with BT-549 is 56.9 µM (inactive); with HCC 2998, 27.6 µM (inactive); with HL-60 it was 6.59 µM (inactive); in the assay on LOX IMVI, 14.9 µM (inactive); with M14, 23.5 µM (inactive); with MCF7, 20.7 µM (inactive). Further, the GI50 is 12.7 µM (inactive) in the assay on MDA-MB-435; 21.1 µM (inactive) in the assay with RPMI-8226; 35.3 µM (inactive) in the assay on SF-268; 50.5 µM (inactive) in the assay on SK-MEL-28; 23.4 µM (inactive) in the assay with SK-MEL-2; 18.1 µM (inactive) in the assay with SK-MEL-5. Besides, the GI50 with SNB-19 was 26.7 µM (inactive); in the assay on SNB-75, 3.57 µM (inactive); with SR it was 4.72 µM (inactive); in the assay with SW-620, 21.8 µM (inactive); with TK-10, 17.8 µM (inactive); with U-251, 30.1 µM (inactive).

Turning to `CC(=O)OC1OC(c2ccoc2)C[C@@]12C1CCC3O[C@]3(C)[C@]1(C)[C@H](OC(C)=O)[C@H](OC(C)=O)[C@H]2C` (stereo not given in full), the GI50 with BT-549 was > 37.5 µM (inactive); in the assay with CAKI-1, > 37.5 µM (inactive); in the assay on HCC 2998 it was > 37.5 µM (inactive); with HL-60, 6.62 µM (inactive); with LOX IMVI, 28.1 µM (inactive); in the assay with M14 it was > 37.5 µM (inactive). For the same molecule, the GI50 with MCF7, with PC-3, in the assay with SK-MEL-28, in the assay on SK-MEL-2, with SK-MEL-5 and with SNB-19 was > 37.5 µM (inactive) in each case. Moreover, the GI50 in the assay with SR is 18.1 µM (inactive); in the assay on SW-620 it was > 37.5 µM (inactive); in the assay on TK-10, > 37.5 µM (inactive); in the assay with U-251, > 37.5 µM (inactive).

With `O=c1[nH]c2c(S)nc(O)nc2n1-c1ccccc1`, the GI50 in the assay with BT-549, with CAKI-1, with HCC 2998, in the assay with LOX IMVI, in the assay on M14 and with MDA-MB-435 was > 100 µM (inactive) in each case. In addition, the GI50 in the assay with PC-3, with SF-268, with SK-MEL-28, in the assay with SK-MEL-2, with SK-MEL-5 and in the assay with SNB-19 was > 100 µM (inactive) in each case. The GI50 in the assay on SR, in the assay on SW-620, in the assay on TK-10 and in the assay with U-251 was > 100 µM (inactive) in each case.
